{"source": "patent US20260315452A1", "about": "“PROTEASE INHIBITORS AND USES THEREOF” (priority 2023, published 2026)", "key": {"SARS-CoV-2 3CLpro [1]": {"target": "T1, SARS-CoV-2 3CLpro (Severe acute respiratory syndrome coronavirus 2, UniProt P0DTD1)", "assay": "biochemical", "conditions": "inhibition of SARS-CoV-2 3CLpro; 15 nM 3CLpro, 25 μM fluorogenic substrate, 37° C.; read-out: Inhibitory Activity (IC50)"}, "SARS-CoV-2": {"system": "SARS-CoV-2", "assay": "Anti-SARS-CoV-2 activity in A549 cells expressing the human ACE2 receptor (inhibition of SARS-CoV-2 replication)", "format": "cell-based", "conditions": "for antiviral potency in A549 cells in comparison with compound Ref-2: versus Ref-2 (FIG. 7); for EC50: Severe acute respiratory syndrome coronavirus 2, A549-ACE2, 24 h, read-out: Antiviral Activity (EC50)"}, "SARS-CoV-2 3CLpro [2]": {"target": "T1, SARS-CoV-2 3CLpro", "format": "binding", "conditions": "ITC, 25° C., pH 7.4; versus Ref-2 (compound P2)"}, "SARS-CoV-2 3CLpro [3]": {"target": "T1, SARS-CoV-2 3CLpro", "assay": "Co-crystal structure with SARS-CoV-2 3CLpro", "format": "binding", "conditions": "co-crystal with SARS-CoV-2 3CLpro"}, "[4]": {"system": "CYP1A2, CYP2C9, CYP2C19, CYP2D6 and CYP3A4", "assay": "CYP inhibition evaluation in human liver microsomes", "format": "in vitro ADME", "conditions": "CYP1A2, 2C9, 2C19, 2D6, 3A4, up to 50 μM", "procedure": "20 μL of the substrate solutions of CYP1A2, CYP2C9, CYP2C19, CYP2D6 and CYP3A4 were each mixed with […] of the test compounds (final concentrations: 50 μM, 15 μM, 5 μM, 1.5 μM, 0.5 μM, 0.15 μM, 0.05 μM, 0 μM), followed by the addition of 158 μL of the HLM (Human liver microsome) working solution. Each of the mixtures was incubated at 37° C. for 10 minutes, and then mixed with 20 μL of NADPH cofactor, followed by incubation at 37° C. for additional 10 minutes. The reactions were terminated by adding 400 μL cold stop solution (200 ng/mL Tolbutamide and Labetalol in ACN). The samples are centrifuged at 4000 rpm for 20 minutes to precipitate protein. Next, 200 μL of the supernatant of each sample was transferred to 100 μL HPLC water and shaken for 10 minutes, and then analyzed by LC/MS/MS."}, "[5]": {"assay": "Plasma protein binding (PPB) by equilibrium dialysis", "format": "in vitro ADME", "conditions": "human and mouse plasma, 4 hours, 37° C., versus Ref-2", "procedure": "The binding of compounds Ref-2, 86, 97, 98 and 170 to human and mouse plasma were measured using equilibrium dialysis. A loading matrix was prepared by diluting of a 400 μM stock of each of the compounds in DMSO by the plasma matrix. To prepare the time zero (To) samples to be used for recovery determination, 50 μL of the loading matrix were transferred in triplicate to the sample collection plate, immediately matched with opposite blank buffer to obtain a final volume of 100 μL of 1:1 matrix/dialysis buffer (v/v) in each well, followed by the addition of 500 μL of stop solution (200 ng/mL of tolbutamide, 200 ng/mL of labetalol, and 50 ng/mL of metformin in acetonitrile) and then stored at 2-8° C. pending further processes along with other post-dialysis samples. To load the dialysis device, 150 μL of the loading matrix and 150 μL of the dialysis buffer were transferred to the donor side and the receiver side of each well, respectively. The dialysis plate was placed in a humidified incubator at 37° C. with 5% CO2 on a shaking platform that rotated slowly (about 100 rpm) for 4 hours, then 50 μL of samples were taken from both the buffer side and the matrix side, and transferred into new 96-well plates. Each sample was mixed with an equal volume of opposite blank buffer (or matrix) to reach a final volume of 100 μL, followed by the addition of 500 µL of stop solution. The mixture was vortexed and centrifuged at 4000 rpm for about 20 minutes, then […] of the supernatant of each sample was removed for LC-MS/MS analysis. The single blank samples were prepared by transferring 50 μL of blank matrix to a 96 well plate and adding 50 μL of blank PBS buffer to each well. The blank plasma must match the species of plasma used in the plasma side of the well. Then the matrix-matched samples were further processed by adding 500 μL of stop solution, following the same sample processing method as the dialysis samples. The % Unbound, % Bound and % Recovery were calculated using the following equations: […]\nin which F is the analyte concentration or peak area ratio of analyte/internal standard on the buffer (receiver) side of the membrane, T is the analyte concentration or peak area ratio of analyte/internal standard on the matrix (donor) side of the membrane, and T0 is the analyte concentration or the peak area ratio of analyte/internal standard in the loading matrix sample at time zero."}, "Omicron SARS-CoV-2": {"system": "Omicron SARS-CoV-2", "conditions": "FIG. 8, with Ref-2"}}, "data": [{"molecule": "CNC(=O)c1cc(Br)cc([N+](=O)[O-])c1N[C@H]1CN(C(=O)c2cncc3ccccc23)CCC1(F)F", "note": "[Compound 19, (S)-5-bromo-2-((4,4-difluoro-1-(isoquinoline-4-carbonyl)piperidin-3-yl)amino)-N-methyl-3-nitrobenzamide]", "values": [{"measurement": "IC50", "setting": "SARS-CoV-2 3CLpro [1]", "value": "< 100", "unit": "nM"}, {"measurement": "antiviral potency in A549 cells in comparison with compound Ref-2", "setting": "SARS-CoV-2", "value": "better antiviral potency"}, {"measurement": "EC50", "setting": "SARS-CoV-2", "value": "< 100", "unit": "nM"}, {"measurement": "binding affinity (dissociation constant, Kd) in comparison with compound Ref-2", "setting": "SARS-CoV-2 3CLpro [2]", "value": "higher binding affinity"}, {"measurement": "binding site/mode in crystal structure", "setting": "SARS-CoV-2 3CLpro [3]", "value": "bound into the catalytic pocket of 3CLpro"}]}, {"molecule": "CNC(=O)c1cc(Cl)cc([N+](=O)[O-])c1N[C@H]1CN(C(=O)c2cncc3ccncc23)CCC1(F)F", "note": "[Compound 97, (S)-5-chloro-2-((4,4-difluoro-1-(2,6-naphthyridine-4-carbonyl)piperidin-3-yl)amino)-N-methyl-3-nitrobenzamide]", "values": [{"measurement": "IC50", "setting": "SARS-CoV-2 3CLpro [1]", "value": "< 100", "unit": "nM"}, {"measurement": "effect on different CYP isoforms", "setting": "[4]", "value": "little effect on different CYP isoforms"}, {"measurement": "free PPB ratio in comparison with compound Ref-2", "setting": "[5]", "value": "better free PPB ratios"}]}, {"molecule": "CNC(=O)c1cc(Cl)cc([N+](=O)[O-])c1N[C@H]1CN(C(=O)c2cncc3ccn(C)c23)CCC1(F)F", "note": "[Compound 86, (S)-5-chloro-2-((4,4-difluoro-1-(1-methyl-1H-pyrrolo [3,2-c]pyridine-7-carbonyl)piperidin-3-yl)amino)-N-methyl-3-nitrobenzamide]", "values": [{"measurement": "IC50", "setting": "SARS-CoV-2 3CLpro [1]", "value": "< 100", "unit": "nM"}, {"measurement": "free PPB ratio in comparison with compound Ref-2", "setting": "[5]", "value": "better free PPB ratios"}]}, {"molecule": "CNC(=O)c1cc(Cl)cc([N+](=O)[O-])c1N[C@H]1CN(C(=O)c2cncc3cccnc23)CCC1(F)F", "note": "[Compound 98, (S)-5-chloro-2-((4,4-difluoro-1-(1,6-naphthyridine-8-carbonyl)piperidin-3-yl)amino)-N-methyl-3-nitrobenzamide]", "values": [{"measurement": "IC50", "setting": "SARS-CoV-2 3CLpro [1]", "value": "< 100", "unit": "nM"}, {"measurement": "EC50", "setting": "SARS-CoV-2", "value": "< 100", "unit": "nM"}, {"measurement": "effect on different CYP isoforms", "setting": "[4]", "value": "little effect on different CYP isoforms"}, {"measurement": "free PPB ratio in comparison with compound Ref-2", "setting": "[5]", "value": "better free PPB ratios"}, {"measurement": "binding site/mode in crystal structure", "setting": "SARS-CoV-2 3CLpro [3]", "value": "bind to 3CLpro similar to that of Compound 19"}, {"measurement": "activity against Omicron SARS-CoV-2 in Caco-2 cells", "setting": "Omicron SARS-CoV-2", "value": "stronger activity against Omicron SARS-CoV-2"}]}, {"molecule": "O=C(NC1CC(F)(F)C1)c1cc(Br)cc([N+](=O)[O-])c1N[C@H]1CN(C(=O)c2cncc3ccccc23)CC12CC2", "note": "[Compound 30, (R)-5-bromo-N-(3,3-difluorocyclobutyl)-2-((5-(isoquinoline-4-carbonyl)-5-azaspiro[2.4]heptan-7-yl)amino)-3-nitrobenzamide]", "values": [{"measurement": "IC50", "setting": "SARS-CoV-2 3CLpro [1]", "value": "< 100", "unit": "nM"}, {"measurement": "antiviral potency in A549 cells in comparison with compound Ref-2", "setting": "SARS-CoV-2", "value": "better antiviral potency"}, {"measurement": "EC50", "setting": "SARS-CoV-2", "value": "< 100", "unit": "nM"}, {"measurement": "binding affinity (dissociation constant, Kd) in comparison with compound Ref-2", "setting": "SARS-CoV-2 3CLpro [2]", "value": "higher binding affinity"}]}, {"molecule": "CNC(=O)c1cc(Cl)cc([N+](=O)[O-])c1N[C@H]1CN(C(=O)c2cncc3cccnc23)CC[C@@H]1F", "note": "[Compound 170, 5-chloro-2-(((3S, 4S)-4-fluoro-1-(1,6-naphthyridine-8-carbonyl)piperidin-3-yl)amino)-N-methyl-3-nitrobenzamide]", "values": [{"measurement": "IC50", "setting": "SARS-CoV-2 3CLpro [1]", "value": "< 100", "unit": "nM"}, {"measurement": "effect on different CYP isoforms", "setting": "[4]", "value": "little effect on different CYP isoforms"}, {"measurement": "free PPB ratio in comparison with compound Ref-2", "setting": "[5]", "value": "better free PPB ratios"}]}]}
